The values below come from US20250164502A1, “Mutant Human Nax Proteins and Screening Methods” (Genentech, Inc., priority 2021, published 2025).

Like-named read-outs stand apart in the source and are kept apart here.

Assay type in all cases: cell-based
Assay [1] concerns the target T1, human NaX-QTT (Homo sapiens, UniProt Q01118, F724Q/I1189T/I1492T).
T1 construct: expressed in transfected cells; host or cells: Xenopus laevis oocytes injected with in vitro transcribed capped RNA
Kind of assay: Whole-cell patch clamp of HEK293T cells expressing NaX-QTT, effect of extracellular Ca^2+. The method, then:
(§1) FIGS. 5A-C show pharmacology of the human NaX-QTT channel. FIG. 5A, left and middle panels, show representative I-V currents from HEK293 cells expressing human NaX-QTT with indicated extracellular monovalent cations with or without indicated amounts of CaCl2 in the extracellular solution. Voltage ramp from −80 to +80 mV was applied.
HEK293T cells expressing NaX- or NaX-QTT-eGFP-2×FLAG were seeded on glass cover slips an hour before whole-cell patch-clamping experiments. For a more physiological condition (FIGS. 4D and 7B), the extracellular solution contained 150 mM NaCl, 5 mM KCl, 0.5 mM CaCl2, 1.2 mM MgCl2, 10 mM HEPES, and 13 mM D-(+)-glucose (pH 7.4) with NaOH, ˜320 mOsm/L, and the intracellular solution contained 140 mM CsCl, 10 mM CsF, 5 mM EGTA, 10 mM HEPES, and 2 mM Na2ATP (pH 7.2) with CsOH, ˜304 mOsm/L. To determine if NaX-QTT was cation-permeable, we first substituted all extracellular cations with NMDG^+ (FIG. 4E). Extracellular solution contained 150 mM NMDG and 10 mM HEPES (D-(+)-glucose was added accordingly to achieve osmolarity ˜325 mOsm/L and pH was adjusted to 7.4 with hydrochloric acid). To determine if NaX-QTT was anion-permeable, we substituted all Cl^− ions in both intra- and extracellular solutions with the large anion methanesulfonate (MS^−) (FIG. 15C). The extracellular solution contained 150 mM NaMS and 10 mM HEPES (D-(+)-glucose was added accordingly to achieve osmolarity ˜325 mOsm/L, and pH was adjusted to 7.4 with NaOH). […]
For data analysis, raw current traces were typically filtered using 8-pole Bessel low-pass filter at 500-800 Hz. […] For ion-selectivity experiments performed with Na^+ intracellular solution (FIGS. 4E and 5A), liquid junction potential (LJP) was measured with reference to the Na^+ intracellular solution and corrected after recording. Relative ion permeabilities (PNa/PX) were calculated using the equation PX/PNa=[Na^+]IC exp(ErevF/RT)/[X^+]EC (X=Na, K, Li or Cs), where F is Faraday's constant, R is the gas constant, […], and Erevs were measured from the −80- to +80-m V ramp (corrected for LJP).

The target of assay [2] is T1, human NaX-QTT. The assay is described as follows: Two-electrode voltage-clamp of Xenopus laevis oocytes expressing human NaX-QTT with blockers or multivalent cations. The method, then:
as §1
Oocytes were prepared as previously described^68. Healthy-looking stage V-VI oocytes were injected with 2.5-40 ng of RNA (in 5-41 nL) using a Nanoliter 2010 injector (World Precision Instruments). When excluding one or more construct, an equivalent volume of nuclease-free water was added to maintain a constant RNA concentration across different construct combinations. Injected oocytes were kept at 18° C., 140 rpm, in ND96 supplemented with 50 μg/mL gentamicin and 50 μg/mL tetracycline (in mM: 96 NaCl, 2 KCl, 1 MgCl2, 1.8 CaCl2), 2.5 sodium pyruvate, 0.5 theophylline, 5 HEPES; pH 7.4 with NaOH) for two to five days. Two-electrode voltage-clamp measurements were performed at room temperature using a Warner OC-725C Oocyte Clamp amplifier (Warner Instrument Corp, USA) and under constant perfusion with ND96 solution (in mM: 96 NaCl, 2 KCl, 1 MgCl2, 1.8 CaCl2, 5 HEPES; pH 7.4 with NaOH). For ion selectivity experiments, external solutions contained 115 mM of test cations as chloride salts, 1.2 mM CaCl2, 2 mM MgCl2, 5 mM HEPES (pH 7.4 with the corresponding hydroxide). Data acquisition was performed using a Digidata 1550 digitizer (Molecular devices; sampled at 10 kHz) and pCLAMP 10 software (Molecular Devices). Microelectrodes from borosilicate glass capillaries (Harvard Apparatus) were prepared to have resistances around 0.2-1.0 MQ2 using a P-1000 Flaming/Brown Micropipette Puller System (Sutter Instrument) and backfilled with 3 M KCl. Aconitine and veratridine (Alomone Labs) were dissolved in DMSO to make 50 mM stocks, and were further diluted to 300 and 100 μM in ND96 for electrophysiological experiments. Other NaV activators (Alomone Labs; FIGS. 8A-D) were dissolved in water to make stock solutions. The voltage dependence of ion current was determined using a protocol consisting of steps from a holding potential of 0 mV to voltages ranging from +80 to −100 mV for 1 s in 20 mV increment.

Assay [3] deals with T2, human NaX (Homo sapiens, UniProt Q01118).
T2 construct: expressed in transfected cells; host or cells: Xenopus laevis oocytes injected with in vitro transcribed capped RNA
The assay is described as follows: Two-electrode voltage-clamp of oocytes expressing human NaX with classical NaV channel activators. Particulars: different voltage-step protocols in oocytes; wild-type human NaX. The text has this: FIGS. 8A-D show functional evaluation of human NaX in Xenopus laevis oocytes. FIGS. 8A, left panel, and 8B, left panel, show representative currents from Xenopus laevis oocytes expressing human NaX with the indicated pharmacological modulator present in the extracellular solution. […] FIGS. 8C, left panel, and 8D, left panel, show representative currents from oocytes expressing human NaX with the indicated proteins co-expressed. FIG. 8C, right panel, show I-V plots with steps between +80 and −100 mV, in 20 mV increments, from a HP of 0 mV.
Oocytes were prepared as previously described^68. Healthy-looking stage V-VI oocytes were injected with 2.5-40 ng of RNA (in 5-41 nL) using a Nanoliter 2010 injector (World Precision Instruments). When excluding one or more construct, an equivalent volume of nuclease-free water was added to maintain a constant RNA concentration across different construct combinations. Injected oocytes were kept at 18° C., 140 rpm, in ND96 supplemented with 50 μg/mL gentamicin and 50 μg/mL tetracycline (in mM: 96 NaCl, 2 KCl, 1 MgCl2, 1.8 CaCl2), 2.5 sodium pyruvate, 0.5 theophylline, 5 HEPES; pH 7.4 with NaOH) for two to five days. […] The voltage dependence of ion current was determined using a protocol consisting of steps from a holding potential of 0 mV to voltages ranging from +80 to −100 mV for 1 s in 20 mV increment.

Setting [4] is: 1 mM, oocytes, step from 0 to +80 mV.
[5] abbreviates: at concentrations up to 300 μM, oocytes.

T1 sequence (Q01118 whole entry F724Q/I1189T/I1492T): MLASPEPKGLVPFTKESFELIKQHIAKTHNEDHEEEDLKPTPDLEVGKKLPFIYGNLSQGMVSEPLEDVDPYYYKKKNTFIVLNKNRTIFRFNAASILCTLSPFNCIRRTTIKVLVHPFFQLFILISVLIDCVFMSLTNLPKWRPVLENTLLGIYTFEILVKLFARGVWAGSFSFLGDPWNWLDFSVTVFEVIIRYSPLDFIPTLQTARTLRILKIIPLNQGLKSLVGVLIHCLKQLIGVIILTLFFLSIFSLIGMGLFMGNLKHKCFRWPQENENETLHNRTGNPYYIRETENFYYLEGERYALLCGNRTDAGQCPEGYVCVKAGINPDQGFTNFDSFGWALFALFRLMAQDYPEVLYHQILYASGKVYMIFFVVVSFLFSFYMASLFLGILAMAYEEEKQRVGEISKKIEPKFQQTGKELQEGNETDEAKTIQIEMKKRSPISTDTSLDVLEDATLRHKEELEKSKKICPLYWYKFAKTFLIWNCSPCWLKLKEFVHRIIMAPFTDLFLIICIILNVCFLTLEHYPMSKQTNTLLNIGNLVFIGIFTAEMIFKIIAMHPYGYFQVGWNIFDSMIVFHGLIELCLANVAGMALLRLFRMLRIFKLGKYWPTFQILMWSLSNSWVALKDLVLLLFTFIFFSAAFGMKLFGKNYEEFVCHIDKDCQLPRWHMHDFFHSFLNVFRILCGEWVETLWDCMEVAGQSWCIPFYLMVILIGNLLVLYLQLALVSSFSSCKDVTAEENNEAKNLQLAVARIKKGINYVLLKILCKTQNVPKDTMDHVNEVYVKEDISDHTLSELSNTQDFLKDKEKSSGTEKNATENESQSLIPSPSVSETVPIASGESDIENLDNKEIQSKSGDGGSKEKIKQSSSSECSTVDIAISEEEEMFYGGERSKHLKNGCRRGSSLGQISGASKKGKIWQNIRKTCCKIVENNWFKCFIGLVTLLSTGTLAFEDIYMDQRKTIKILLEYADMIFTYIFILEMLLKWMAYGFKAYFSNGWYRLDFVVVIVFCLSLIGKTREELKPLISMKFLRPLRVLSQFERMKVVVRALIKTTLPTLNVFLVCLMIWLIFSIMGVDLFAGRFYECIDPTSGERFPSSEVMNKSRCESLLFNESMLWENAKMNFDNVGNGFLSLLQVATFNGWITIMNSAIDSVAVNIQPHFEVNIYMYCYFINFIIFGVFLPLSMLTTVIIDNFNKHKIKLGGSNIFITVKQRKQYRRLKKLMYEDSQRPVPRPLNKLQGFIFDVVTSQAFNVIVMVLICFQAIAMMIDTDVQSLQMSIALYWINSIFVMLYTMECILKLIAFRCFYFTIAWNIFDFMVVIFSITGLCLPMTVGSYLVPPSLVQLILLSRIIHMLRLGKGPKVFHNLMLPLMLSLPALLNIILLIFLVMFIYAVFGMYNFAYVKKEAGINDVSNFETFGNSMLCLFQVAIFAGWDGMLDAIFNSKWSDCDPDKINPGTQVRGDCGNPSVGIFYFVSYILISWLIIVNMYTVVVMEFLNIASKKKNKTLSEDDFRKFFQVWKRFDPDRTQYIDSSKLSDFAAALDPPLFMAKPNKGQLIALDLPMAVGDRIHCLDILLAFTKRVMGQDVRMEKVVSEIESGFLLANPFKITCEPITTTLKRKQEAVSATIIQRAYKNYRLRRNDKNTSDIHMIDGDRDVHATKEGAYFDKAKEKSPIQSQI
T2 sequence (Q01118 whole entry): as the sequence (Q01118 whole entry F724Q/I1189T/I1492T) above, with Q724F, T1189I, T1492I counted along it

In the case of `[Ca+2]` [Ca^2+], the “permeation through NaX-QTT” value in assay [1] (HEK293T cells, extracellular CaCl2) was “does not permeate”. For the same compound, the “potency of extracellular Ca^2+ block on NaX relative to traditional NaV channels” value in assay [1] (NaX-QTT versus NaV channels) is approximately 10 fold. For the same compound, the “inhibition of the outward Na^+ current” value in assay [1] (extracellular Ca^2+ 1 mM, HEK293T cells, NaX-QTT, at 80 mV) was approximately 70%.
Regarding `[Co+2]` [Co^2+], the “inhibition of NaX-QTT currents” value in assay [2] (setting [4]) is on record as “inhibited”.
Take `[Gd+3]` [Gd^3+]: in assay [2] (trivalent cation, oocytes), the “inhibition of NaX-QTT currents compared with Zn^2+ and Co^2+” value is on record as “more potent”.
Regarding `[Zn+2]` [Zn^2+], the “inhibition of NaX-QTT currents” value in assay [2] (setting [4]) is listed as “inhibited”.
Consider `CCN1C[C@]2(COC)[C@H](O)C[C@H](OC)[C@@]34[C@@H]5C[C@@]6(O)[C@H](OC(=O)c7ccccc7)[C@@H]5[C@@](OC(C)=O)([C@@H]([C@H](OC)[C@H]23)[C@@H]14)[C@@H](O)[C@@H]6OC` [aconitine], for which the “activation of human NaX-mediated currents” value in assay [3] is listed as “did not invoke any clear human NaX-mediated currents”.
For `O=C(NCC1CCCCN1)c1cc(OCC(F)(F)F)ccc1OCC(F)(F)F` (stereo not shown) [flecainide], in assay [2] (setting [5]), the “inhibition of NaX-QTT currents” value is recorded as “strong inhibitory effects were not observed”.
Regarding `CN(C)C(=O)C(CCN1CCC(O)(c2ccc(Cl)cc2)CC1)(c1ccccc1)c1ccccc1` [loperamide], the “inhibition of NaX-QTT currents” value in assay [2] was “equally potent inhibitors”.
Take `O=C1NC(=O)C(c2ccccc2)(c2ccccc2)N1` [phenytoin]: in assay [2] (setting [5]), the “inhibition of NaX-QTT currents” value was “strong inhibitory effects were not observed”.
